Results taken from paper PMC6154586 (Molecules : A Journal of Synthetic Chemistry and Natural …, 2017).

Legend:
Assay type in all cases: cell-based
Conditions in all cases: human
[1] = in vitro cytotoxicity bioassay, MCF-7
Method: (§1) These two experiments were conducted according to reference procedures.

[2] = in vitro cytotoxicity bioassay, MDA-MB-435
Method: as §1

[3] = in vitro cytotoxicity bioassay, HepG2
Method: as §1

[4] = in vitro cytotoxicity bioassay, PC-3
Method: as §1

[5] = MCF-7 cells (breast cancer cell line)
[6] = MDA-MB-435 cells (breast cancer cell line)
[7] = HepG2 cells (hepatoma cell line)
[8] = PC-3 cells (prostatic cancer cell line)

Measured: IC50

C=C1[C@@]23C(=O)O[C@H](C)[C@]24O[C@@]2(C(=C)[C@]5(C=CC(=O)OC5(C)C)CC[C@]32C)[C@H](O)[C@@]1(C)OC4=O [Compound 8, dehydroaustinol]
> 50 µM: [1]; MCF-7 | [2]; MDA-MB-435 | [3]; HepG2 | [4]; PC-3

C=C1[C@@]23C(=O)O[C@H](C)[C@]24O[C@@]2(C(=C)[C@]5(CCC(=O)OC5(C)C)C[C@@H](OC(C)=O)[C@]32C)[C@H](OC(C)=O)[C@@]1(C)OC4=O [Compound 10, 1,2-dihydro-acetoxydehydroaustin B]
> 50 µM: [1]; [5] | [2]; [6] | [3]; [7] | [4]; [8]

C=C1C2(CC(O)C(=O)OC2(C)C)CC(OC(C)=O)C2(C)C13OC14C(=O)OC(C)(C(=C)C12C(=O)OC4C)C3OC(C)=O (stereo not shown) [Compound 1, 2-hydroacetoxydehydroaustin]
> 50 µM: [1]; [5] | [2]; [6] | [3]; [7] | [4]; [8]

C=C1[C@]2(C)C(=O)[C@]3(O)[C@@H](C)OC(=O)[C@]13[C@@]1(C)CC[C@@]3(C=CC(=O)OC3(C)C)C(C)=C1[C@@H]2OC(C)=O [Compound 2, 11-acetoxyisoaustinone]
> 50 µM: [1]; [5] | [2]; [6] | [3]; [7] | [4]; [8]

C=C1[C@@]23C(=O)O[C@H](C)[C@]24O[C@@]2(C(=C)[C@]5(C=CC(=O)OC5(C)C)C[C@@H](OC(C)=O)[C@]32C)[C@H](OC(C)=O)[C@@]1(C)OC4=O [Compound 6, acetoxydehydroaustin]
> 50 µM: [1]; MCF-7 | [2]; MDA-MB-435 | [3]; HepG2 | [4]; PC-3

C=C1[C@@]2(C)CC3=C(C)[C@]4(C=CC(=O)OC4(C)C)CC[C@]3(C)[C@@]13C(=O)O[C@H](C)[C@@]3(O)C2=O [Compound 3, isoaustinol]
> 50 µM: [1]; MCF-7 | [2]; MDA-MB-435 | [3]; HepG2 | [4]; PC-3

C=C1[C@@]2(C)C[C@H]3[C@]4(C)C=CC(=O)OC(C)(C)[C@H]4CC[C@]3(C)[C@]1(C(=O)OC)C(=O)[C@@](C)(O)C2=O [Compound 9, preaustinoid A2]
> 50 µM: [1]; [5] | [2]; [6] | [3]; [7] | [4]; [8]

C=C1[C@@]23C(=O)O[C@H](C)[C@@]2(O)C(=O)O[C@]1(C)[C@@H](OC(C)=O)C1=C(C)[C@]2(C=CC(=O)OC2(C)C)CC[C@@]13C [Compound 4, austin]
> 50 µM: [1]; MCF-7 | [2]; MDA-MB-435 | [3]; HepG2 | [4]; PC-3

C=C1[C@@]23C(=O)O[C@H](C)[C@@]2(O)C(=O)O[C@]1(C)[C@@H](O)C1=C(C)[C@]2(C=CC(=O)OC2(C)C)CC[C@@]13C [Compound 5, austinol]
> 50 µM: [1]; [5] | [2]; [6] | [3]; [7] | [4]; [8]

C=C1[C@@]23C(=O)O[C@H](C)[C@]24O[C@@]2(C(=C)[C@]5(C=CC(=O)OC5(C)C)CC[C@]32C)[C@H](OC(C)=O)[C@@]1(C)OC4=O [Compound 7, dehydroaustin]
> 50 µM: [1]; MCF-7 | [2]; MDA-MB-435 | [3]; HepG2 | [4]; PC-3
